The test system of experiment [1] is a panel of cancer and normal cells. The experiment in a line: GFP-LC3 puncta formation in a panel of cancer and normal cells. In kind it is cell-based, human. To be noted: fluorescent microscopy (FIG. 2c). The method, then: GFP-LC3 puncta formation was quantified as previously described. In brief, GFP-LC3 transfected cells grown on coverslips in a 6-well plate were treated with or without 20 μM of […], 10 μM of isoliensinine, dauricine, cepharanthine, hernandezine or thalidezine for 4 hours, the cells were then fixed in 4% paraformaldehyde for 20 minutes at room temperature and then rinsed with PBS. Slides were mounted with FluorSaveTM mounting media (Calbiochem, San Diego, Calif.) and examined by fluorescence microscopy. The number of GFP-positive cells with GFP-LC3 puncta formation was examined under the Nikon ECLIPSE 80i microscope. Representative images were captured with CCD digital camera Spot RT3TM (Diagnostic Instruments, Inc., Melville, N.Y.). To quantify for autophagy, the percentage of cells with punctate GFP-LC3 fluorescence was calculated by counting the number of the cells with punctate GFP-LC3 fluorescence in GFP-positive cells. A minimum of 150 cells from 3 randomly selected fields was scored.

The test system of experiment [2] is HeLa cells expressing GFP-LC3. In words: GFP-LC3 puncta quantification in the presence of autophagic inhibitor 3-MA. Type of experiment: cell-based, human. To be noted: 20 μM liensinine or 10 μM others, 3-MA 5 mM, 4 hours (FIG. 3). The method, then: GFP-LC3 puncta formation was quantified as previously described. In brief, HeLa cells expressing GFP-LC3 were treated with 20 μM of […], or 10 μM of isoliensinine, dauricine, cepharanthine, hernandezine or thalidezine in the presence of autophagic inhibitor, 3-methyl adenine (3-MA, 5 mM), for 4 hours. The cells were then fixed in 4% paraformaldehyde for 20 minutes at room temperature and then rinsed with PBS. Slides were mounted with FluorSaveTM mounting media (Calbiochem) and examined by fluorescence microscopy. To quantify for autophagy, the percentage of cells with punctate GFP-LC3 fluorescence was calculated by counting the number of the cells with punctate GFP-LC3 fluorescence in GFP-positive cells. A minimum of 150 cells from 3 randomly selected fields were scored.

The subject of experiment [3] is Atg7 wild-type mouse embryonic fibroblasts. The experiment in a line: GFP-LC3 puncta in Atg7 wild-type MEFs. Type of experiment: cell-based. The note with it: 20 μM liensinine or 10 μM others, 24 h (FIGS. 4a to 4c). The method, then:
(§1) GFP-LC3 puncta formation was quantified as previously described. In brief, both Atg7 wild-type (Atg7-wt or Atg7+/+) and deficient (Atg7-/-) mouse embryonic fibroblasts (MEFs) were transfected with GFP-LC3 plasmid and then grown on coverslips in a 6-well plate. The cells were then treated with 20 μM of […], 10 μM of isoliensinine, 10 μM of dauricine, 10 μM of cepharanthine, hernandezine or 10 μM of thalidezine. for 24 h. The cells were then fixed in 4% paraformaldehyde for 20 minutes at room temperature and then rinsed with PBS. Slides were mounted with FluorSaveTM mounting media (Calbiochem, San Diego, Calif.) and examined by fluorescence microscopy. The number of GFP-positive cells with GFP-LC3 puncta formation was examined under the Nikon ECLIPSE 80i microscope. Representative images were captured with CCD digital camera Spot RT3TM (Diagnostic Instruments, Inc., Melville, N.Y.). To quantify for autophagy, the percentage of cells with punctate GFP-LC3 fluorescence was calculated by counting the number of the cells with punctate GFP-LC3 fluorescence in GFP-positive cells. A minimum of 150 cells from 3 randomly selected fields were scored.

Experiment [4] has as its system Atg7-knockout (Atg7-ko or Atg7−/−) mouse embryonic fibroblasts. The experiment in a line: GFP-LC3 puncta in Atg7 deficient MEFs. Type of experiment: cell-based. To be noted: 20 μM liensinine or 10 μM others, 24 h (FIGS. 4a to 4c). As for the experimental part:
as §1

A further experiment concerns AMPK. The experiment in a line: Detection of mTOR signaling marker proteins: AMPK phosphorylation (Western blot). Type of experiment: cell-based, human. The note with it: HeLa cells, 20 μM liensinine or 10 μM others, compared to DMSO control (FIG. 5a). The method, then:
HeLa cells treated with 20 μM of […], 10 μM of isoliensinine, 10 μM of dauricine, 10 μM of cepharanthine, 10 μM of hernandezine and 10 μM of thalidezine were harvested and lysed in RIPA buffer (Cell Signaling). The cell lysates were then resolved by SDS-PAGE. After electrophoresis, the proteins from SDS-PAGE were transferred to nitrocellulose membrane which was then blocked with 5% non-fat dried milk for 60 minutes. The membrane was then incubated with P-p70S6K, p70S6K, P-AMPK, AMPK and actin primary antibodies (1:1000) in TBST overnight at 4° C. respectively. After that, the membrane was further incubated with HRP-conjugated secondary antibodies for 60 minutes. Finally, protein bands were visualized by using the ECL Western Blotting Detection Reagents (Invitrogen).
For orientation: A western blot detects proteins with antibodies after separation by electrophoresis.

Here are results for five molecules from US9561220B2, “Group of alkaloids, the novel autophagic enhancers for treatment of cancers and neurodegenerative conditions thereof” (Macau University of Science and Technology, priority 2014, dated 2017).

On to `COc1ccc2cc1Oc1ccc(cc1)C[C@H]1c3cc(c(OC)cc3CCN1C)Oc1c(OC)c(OC)c(OC)c3c1[C@H](C2)N(C)CC3` [hernandezine], for which, in experiment [1], the “formation of GFP-LC3 puncta” value is recorded as “increased”. Further, in experiment [2], the “compound-induced GFP-LC3 puncta formation in the presence of autophagic inhibitor (3-MA)” value is recorded as “significant reduction”. Further, in experiment [3], the “GFP-LC3 puncta formation in wild type Atg7 cells” value is “induce”. Also, the “GFP-LC3 puncta formation in Atg7-knockout cells” value in experiment [4] is “not”. The “phosphorylation of AMPK” value with AMPK is listed as “activate”.

Take `COc1ccc(C[C@@H]2c3cc(Oc4cc(C[C@@H]5c6cc(O)c(OC)cc6CCN5C)ccc4O)c(OC)cc3CCN2C)cc1` [isoliensinine]: the “formation of GFP-LC3 puncta” value in experiment [1] was “increased”. In addition, the “compound-induced GFP-LC3 puncta formation in the presence of autophagic inhibitor (3-MA)” value in experiment [2] is reported as “significant reduction”. For the same molecule, in experiment [3], the “GFP-LC3 puncta formation in wild type Atg7 cells” value is listed as “induce”. The “GFP-LC3 puncta formation in Atg7-knockout cells” value in experiment [4] is given as “not”. The “phosphorylation of AMPK” value in the experiment with AMPK is reported as “activate”.

As to `COc1cc2c(cc1OC)[C@@H](Cc1ccc(O)c(Oc3cc4c(cc3OC)CCN(C)[C@@H]4Cc3ccc(O)cc3)c1)N(C)CC2` [liensinine], the “formation of GFP-LC3 puncta” value in experiment [1] is recorded as “increased”. The “compound-induced GFP-LC3 puncta formation in the presence of autophagic inhibitor (3-MA)” value in experiment [2] is recorded as “significant reduction”. For the same molecule, the “GFP-LC3 puncta formation in wild type Atg7 cells” value in experiment [3] was “induce”. Also, the “GFP-LC3 puncta formation in Atg7-knockout cells” value in experiment [4] is “not”. Further, in the experiment with AMPK, the “phosphorylation of AMPK” value was “activate”.

As for `COc1cc2c(cc1OC)[C@@H](Cc1ccc(Oc3cc(C[C@@H]4c5cc(OC)c(OC)cc5CCN4C)ccc3O)cc1)N(C)CC2` [dauricine], the “formation of GFP-LC3 puncta” value in experiment [1] was “increased”. Further, in experiment [2], the “compound-induced GFP-LC3 puncta formation in the presence of autophagic inhibitor (3-MA)” value is given as “significant reduction”. Besides, in experiment [3], the “GFP-LC3 puncta formation in wild type Atg7 cells” value is on record as “induce”. Besides, the “GFP-LC3 puncta formation in Atg7-knockout cells” value in experiment [4] is recorded as “not”. Moreover, the “phosphorylation of AMPK” value in the experiment with AMPK is “activate”.

Turning to thalidezine, the “formation of GFP-LC3 puncta” value in experiment [1] is given as “increased”. In addition, in experiment [2], the “compound-induced GFP-LC3 puncta formation in the presence of autophagic inhibitor (3-MA)” value is recorded as “significant reduction”. Moreover, the “GFP-LC3 puncta formation in wild type Atg7 cells” value in experiment [3] was “induce”. Besides, the “GFP-LC3 puncta formation in Atg7-knockout cells” value in experiment [4] is on record as “not”. Moreover, in the experiment on AMPK, the “phosphorylation of AMPK” value is given as “activate”.
